Results taken from US20200157635A1, “DIAGNOSTIC AND THERAPEUTIC METHODS FOR CANCER” (Genentech, Inc., priority 2017, published 2020).

Tested on: patients with NSCLC
Assay: POPLAR phase II trial: atezolizumab vs docetaxel, efficacy by PD-L1, CXCL9, IFNG expression level
Format: in vivo, human
Protocol: An RNA-based molecular assay was used to evaluate the association between clinical response to treatment with atezolizumab (MPDL3280A), an anti-PD-L1 antibody, and expression levels of PD-L1, CXCL9, and IFNG in individuals with NSCLC enrolled in a phase II clinical trial in which atezolizumab was administered as a monotherapy.
The POPLAR (Clinical Trial ID No.: NCT01903993) patient population evaluated for PD-L1, CXCL9, and IFNG expression levels consisted of 215 patients. Patients were eligible for enrollment in the POPLAR study if they had locally advanced or metastatic (e.g., stage IIIB, stage IV, or recurrent) NSCLC; disease progression during or following treatment with a prior platinum-containing regimen for locally advanced, unresectable/inoperable, or metastatic NSCLC, or disease recurrence within 6 months of treatment with a platinum-based adjuvant/neoadjuvant regimen; measurable disease, as defined by RECIST v1.1; and an ECOG performance status of 0 or 1. Participants were randomized to receive either atezolizumab at a dose of 1200 mg intravenously every three weeks or docetaxel 75 mg per square meter (mg/m^2) intravenously every three weeks. Treatment with atezolizumab could be continued as long as participants were experiencing clinical benefit, i.e., in the absence of unacceptable toxicity or symptomatic deterioration attributed to disease progression.
To evaluate whether PD-L1, CXCL9, and IFNG gene expression status was associated with patient response to atezolizumab (MPDL3280A) treatment, the gene expression level of PD-L1, CXCL9, and IFNG was assessed in pre-treatment, FFPE tumor samples obtained from each patient. RNA was isolated from the FFPE tumor sections and PD-L1, CXCL9, and IFNG gene expression was measured using PCR-based methodology (Fluidigm). The expression level, expressed as the cycle threshold (Ct) for each of PD-L1, CXCL9, and IFNG was normalized to the expression level of a housekeeping gene (e.g., TMEM55B). The normalized expression value, dCt, where dCt(target gene)=Ct(control gene)−Ct(target gene) for each of PD-L1, CXCL9, and IFNG, was then averaged to obtain a single numerical averaged dCt value for the aggregate expression level of PD-L1, CXCL9, and IFNG.
Tumor specimens obtained from the patients were categorized into different high or low expression level subgroups based on the immune-score expression level of PD-L1, CXCL9, and IFNG relative to a cut-off value for a given percentile (25th, 50th, or 75th percentile) of the population. The 25th percentile was defined by the immune-score expression levels of PD-L1, CXCL9, and IFNG greater than or equal to 25% of all immune-score expression levels of PD-L1, CXCL9, and IFNG in the population analyzed. The 50th percentile was defined by the immune-score expression levels of PD-L1, CXCL9, and IFNG greater than or equal to 50% of all immune-score expression levels of PD-L1, CXCL9, and IFNG in the population analyzed. The 75th percentile was defined by the immune-score expression levels of PD-L1, CXCL9, and IFNG greater than or equal to 75% of all immune-score expression levels of PD-L1, CXCL9, and IFNG in the population analyzed. […]
The OS, PFS, and ORR endpoints from the POPLAR clinical trial were evaluated against the PD-L1, CXCL9, and IFNG expression level cut-offs defined herein (e.g., the 25%, 50%, and 75% expression level quartiles). […]

## CC(=O)O[C@@]12CO[C@@H]1C[C@H](O)[C@@]1(C)C(=O)[C@H](O)C3=C(C)[C@@H](OC(=O)[C@H](O)[C@@H](NC(=O)OC(C)(C)C)c4ccccc4)C[C@@](O)([C@@H](OC(=O)c4ccccc4)[C@H]21)C3(C)C [docetaxel]
BEP (n = 113 vs 112)
  ORR: 8%
ITT (n = 144 vs 143)
  ORR: 15% vs 15%
PD-L1, CXCL9, IFNG expression level percentile ≥25%
  ORR: 13%
PD-L1, CXCL9, IFNG expression level percentile ≥50% (median)
  ORR: 15%
PD-L1, CXCL9, IFNG expression level percentile ≥75%
  ORR: 13%
